{"source": "patent US20200360391A1", "about": "“Medicinal Composition for Treating Intractable Heart Disease” (Osaka University, priority 2016, published 2020)", "key": {"[1]": {"system": "rats", "assay": "Repeated oral administration toxicity study in rats (dose-setting basis)", "conditions": "mg/kg twice per day, oral preparation", "description": "The dose-setting basis for the doses of the test substances used in pharmacological tests is as described below."}, "[2]": {"system": "rat coronary artery complete ischemia model", "assay": "Model of ischemia (MI) by rat coronary artery complete ligation (Tests 1 and 2): echocardiography, body weight", "conditions": "for value of change in E.F. compared with E.F. on Day 1 / value of change in F.S. compared with F.S. on Day 1: B-MS 100, C-MS 50, F-MS 30 mg/kg s.c. single injection"}, "[3]": {"system": "spontaneous dilated cardiomyopathy (J2N-k) hamster model", "assay": "Spontaneous dilated cardiomyopathy (J2N-k) hamster model, 8-week administration from 20 weeks of age (Tests 1-3): echocardiography, body weight", "procedure,_shortened": "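Male J2N-k δ-glycan-deficient hamsters (delivered at 18 weeks; 2-week acclimation) were dosed by oral gavage twice daily for 8 weeks in 0.5% CMC-Na (G in distilled water; 5 mL/kg) at human-equivalent doses, e.g. cilostazol 1.7 mg/kg. Camostat PLGA preparation was given 10 mg/kg s.c. every 4 weeks. Echocardiographic EF/FS changes from baseline were assessed at 4 and 8 weeks versus vehicle.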"}, "[4]": {"system": "mice with ethionine-induced pancreatitis", "conditions": "oral, twice daily; cited from earlier work"}, "[5]": {"system": "rats", "conditions": "rat, in vivo, sc; cited from earlier work"}, "[6]": {"system": "rats", "conditions": "cited from earlier work"}, "[7]": {"system": "lauric acid-induced rat hind limb circulatory disorder model", "conditions": "oral, 7 consecutive days; cited from earlier work"}, "[8]": {"conditions": "MI Test 2, 14 Day, B 150, G 5, I 30, C 10 mg/kg p.o. b.i.d., mean ± S.D."}, "[9]": {"conditions": "MI Test 2, 29 Day, B 150, G 5, I 30, C 10 mg/kg p.o. b.i.d., mean ± S.D."}, "[10]": {"conditions": "MI Test 1, NOAEL doses, 7 Day, mean ± S.D."}, "[11]": {"conditions": "MI Test 1, NOAEL doses, 14 Day, mean ± S.D."}, "[12]": {"conditions": "MI Test 1, NOAEL doses, 29 Day, mean ± S.D."}, "[13]": {"conditions": "Test 2, p.o. b.i.d., NOAEL-based dose"}}}
{"compound": "CN(C)C(=O)COC(=O)Cc1ccc(OC(=O)c2ccc(NC(=N)N)cc2)cc1", "note": "[Compound B, Camostat mesilate]", "values": [{"measurement": "Maximum no-observed-adverse-effect level (screening 1)", "setting": "[1]", "result": 150, "unit": "mg/kg"}, {"measurement": "EF actual measured value and/or amount of change compared with control", "setting": "[2]; MI Test 2, Day 14 and Day 29", "result": "significantly higher"}, {"measurement": "Values of cardiac function (EF, FS %) compared with control", "setting": "[2]; MI Test 2, oral b.i.d. 4 weeks or single subcutaneous administration", "result": "significantly higher"}, {"measurement": "Body weight", "setting": "[2]; MI Test 2, 1 Day, B 150, G 5, I 30, C 10 mg/kg p.o. b.i.d., B MS 100, C MS 50, I MS 30 mg/kg s.c. single injection, mean", "result": 243.5, "unit": "g"}, {"measurement": "Body weight", "setting": "[2]; MI Test 2, 7 Day, B 150, G 5, I 30, C 10 mg/kg p.o. b.i.d., B MS 100, C MS 50, I MS 30 mg/kg s.c. single injection, mean", "result": 249.1, "unit": "g"}, {"measurement": "Body weight", "setting": "[2]; MI Test 2, 14 Day, B 150, G 5, I 30, C 10 mg/kg p.o. b.i.d., B MS 100, C MS 50, I MS 30 mg/kg s.c. single injection, mean", "result": 262.4, "unit": "g"}, {"measurement": "value of change in E.F. compared with E.F. on Day 1", "setting": "[2]; [8]", "result": "<−4.2 ± 2.5> %"}, {"measurement": "value of change in F.S. compared with F.S. on Day 1", "setting": "[2]; [8]", "result": "<−2.3 ± 5.3> %"}, {"measurement": "Body weight", "setting": "[2]; MI Test 2, 21 Day, B 150, G 5, I 30, C 10 mg/kg p.o. b.i.d., B MS 100, C MS 50, I MS 30 mg/kg s.c. single injection, mean", "result": 273.9, "unit": "g"}, {"measurement": "Body weight", "setting": "[2]; MI Test 2, 29 Day, B 150, G 5, I 30, C 10 mg/kg p.o. b.i.d., B MS 100, C MS 50, I MS 30 mg/kg s.c. single injection, mean", "result": 293.5, "unit": "g"}, {"measurement": "value of change in E.F. compared with E.F. on Day 1", "setting": "[2]; [9]", "result": "<−7.3 ± 4.2> %"}, {"measurement": "value of change in F.S. compared with F.S. on Day 1", "setting": "[2]; [9]", "result": "<−3.9 ± 2.2> %"}, {"measurement": "LVIDd 4 W", "setting": "[3]; Test 1, p.o. b.i.d.", "result": 6.8, "unit": "mm"}, {"measurement": "LVIDd 8 W", "setting": "[3]; Test 1, p.o. b.i.d.", "result": 7.3, "unit": "mm"}, {"measurement": "LVIDs 4 W", "setting": "[3]; Test 1, p.o. b.i.d.", "result": 5.6, "unit": "mm"}, {"measurement": "LVIDs 8 W", "setting": "[3]; Test 1, p.o. b.i.d.", "result": 6.1, "unit": "mm"}, {"measurement": "LVIDs 8 W", "setting": "[3]; Test 1, p.o. b.i.d., listed as camostat", "result": "significantly lower"}, {"measurement": "Body weight 1 W", "setting": "[3]; hamster, in vivo, po", "result": 114.4, "unit": "g"}, {"measurement": "Body weight 2 W", "setting": "[3]; hamster, in vivo, po", "result": 117.7, "unit": "g"}, {"measurement": "Body weight 3 W", "setting": "[3]; hamster, in vivo, po", "result": 119.0, "unit": "g"}, {"measurement": "Body weight 4 W", "setting": "[3]; hamster, in vivo, po", "result": 121.3, "unit": "g"}, {"measurement": "Body weight 5 W", "setting": "[3]; hamster, in vivo, po", "result": 121.9, "unit": "g"}, {"measurement": "Body weight 6 W", "setting": "[3]; hamster, in vivo, po", "result": 122.2, "unit": "g"}, {"measurement": "Minimal effective dose (screening 2)", "setting": "[3]; mg/kg twice per day, oral preparation", "result": 5, "unit": "mg/kg"}, {"measurement": "Dose suppressing increase in protease activity in the pancreas", "setting": "[4]", "result": 300, "unit": "mg/kg"}, {"measurement": "LD50", "setting": "[5]", "result": 1329, "unit": "mg/kg"}]}
{"compound": "CC#CCC(C)[C@H](O)/C=C/[C@@H]1[C@H]2c3cccc(CCCC(=O)O)c3O[C@H]2C[C@H]1O", "note": "(mixture of isomers) [Compound F, Beraprost sodium]", "values": [{"measurement": "No-observed-effect level", "setting": "[6]; rats, 12 months", "result": 0.01, "unit": "mg/kg/day"}, {"measurement": "Dose at which toxic findings were observed", "setting": "[6]; repeated administration in rats, duration per compound", "result": "≥ 0.1", "unit": "mg/kg/day"}, {"measurement": "Dose significantly ameliorating the disorder of the hind limbs", "setting": "[7]", "result": 300, "unit": "µg/kg/day"}, {"measurement": "Action on left ventricular systolic function", "setting": "[2]; MI Test 1, 28-day repeated oral administration b.i.d., NOAEL-based doses", "result": "suppression action on the deterioration of left ventricular systolic function"}, {"measurement": "Body weight", "setting": "[2]; MI Test 1, NOAEL doses, 1 Day (grouping), mean ± S.D.", "result": "230.4 ± 3.3", "unit": "g"}, {"measurement": "% FS: value of change compared with the value on Day 1", "setting": "[2]; [10]", "result": 0, "unit": "%"}, {"measurement": "Body weight", "setting": "[2]; [10]", "result": "232.3 ± 10.0", "unit": "g"}, {"measurement": "EF: value of change compared with the value on Day 1", "setting": "[2]; [10]", "result": 0, "unit": "%"}, {"measurement": "% FS: value of change compared with the value on Day 1", "setting": "[2]; [11]", "result": -2, "unit": "%"}, {"measurement": "Body weight", "setting": "[2]; [11]", "result": "252.6 ± 9.8", "unit": "g"}, {"measurement": "EF: value of change compared with the value on Day 1", "setting": "[2]; [11]", "result": -3, "unit": "%"}, {"measurement": "Body weight", "setting": "[2]; MI Test 1, NOAEL doses, 21 Day, mean ± S.D.", "result": "272.9 ± 7.7", "unit": "g"}, {"measurement": "% FS: value of change compared with the value on Day 1", "setting": "[2]; [12]", "result": -3, "unit": "%"}, {"measurement": "Body weight (g)", "setting": "[2]; [12]", "result": "295.4 ± 8.6 (7) g"}, {"measurement": "EF: value of change compared with the value on Day 1", "setting": "[2]; [12]", "result": -6, "unit": "%"}, {"measurement": "Body weight change compared with control group", "setting": "[2]; MI Test 1, until Day 29", "result": "Significant body weight gain suppression"}, {"measurement": "Body weight 0 W", "setting": "[3]; Test 2, at grouping", "result": 119.9, "unit": "g"}, {"measurement": "LVIDd 4 W", "setting": "[3]; Test 2, p.o. b.i.d.", "result": 7.1, "unit": "mm"}, {"measurement": "LVIDd 8 W", "setting": "[3]; Test 2, p.o. b.i.d.", "result": 7.5, "unit": "mm"}, {"measurement": "LVIDs 4 W", "setting": "[3]; Test 2, p.o. b.i.d.", "result": 5.9, "unit": "mm"}, {"measurement": "LVIDs 8 W", "setting": "[3]; Test 2, p.o. b.i.d.", "result": 6.3, "unit": "mm"}, {"measurement": "% FS 4 W", "setting": "[3]; [13]", "result": "significantly higher"}, {"measurement": "% FS value of change at 4 W compared with 0 W", "setting": "[3]; [13]", "result": "significantly higher"}, {"measurement": "Body weight 1 W", "setting": "[3]; [13]", "result": 120.8, "unit": "g"}, {"measurement": "Body weight 2 W", "setting": "[3]; [13]", "result": 122.7, "unit": "g"}, {"measurement": "Body weight 3 W", "setting": "[3]; [13]", "result": 124.9, "unit": "g"}, {"measurement": "Body weight 4 W", "setting": "[3]; [13]", "result": 127.1, "unit": "g"}, {"measurement": "Body weight 5 W", "setting": "[3]; [13]", "result": 128.2, "unit": "g"}, {"measurement": "Body weight 6 W", "setting": "[3]; [13]", "result": 129.6, "unit": "g"}, {"measurement": "Body weight 7 W", "setting": "[3]; [13]", "result": 129.9, "unit": "g"}, {"measurement": "Body weight 8 W", "setting": "[3]; [13]", "result": 130.0, "unit": "g"}, {"measurement": "EF 4 W", "setting": "[3]; [13]", "result": "significantly higher"}]}
